Experimental data published in ChEMBL document CHEMBL5257061, “Structural Study of Potent Triazole-Based Inhibitors of Staphylococcus aureus Biotin Protein Ligase” (ACS Med Chem Lett, 2023).
pKi: −log10 of the molar value. Converted amounts (≈) assume the structure as drawn.

Tests used:
[1] = Inhibition of recombinant Staphylococcus aureus C-terminal hexahistidine tagged Biotin protein ligase expressed in Escherichia coli BL21 (DE3) assessed as inhibition constant incubated for 30 mins by [3H]-Biotin incorporation based radioactivity based assay
Staphylococcus aureus [2] = test: Antibacterial activity against Staphylococcus aureus ATCC 49775 assessed as inhibition of bacterial growth incubated for 16 to 20 hrs by CLSI protocol based two-fold serial dilution method; assay type: functional; details: time 16-20 hrs
[3] = Inhibition of Staphylococcus aureus Biotin protein ligase assessed as inhibition constant by biotinylation assay
[4] = Inhibition of recombinant Staphylococcus aureus C-terminal hexahistidine tagged Biotin protein ligase expressed in Escherichia coli BL21 (DE3) assessed as inhibition constant incubated for 10 mins in presence of ATP by [3H]-Biotin incorporation based liquid scintillation counting analysis
Staphylococcus aureus [5] = test: Antibacterial activity against Staphylococcus aureus ATCC 49775 assessed as inhibition of bacterial growth; assay type: functional
[6] = Inhibition of Staphylococcus aureus Biotin protein ligase assessed as inhibition constant

SMILES	MIC (Staphylococcus aureus [2]) [mg/L]	pKi [3]	other results
Nc1ncnc2c1ncn2[C@@H]1O[C@H](COP(=O)(O)OCCCCC[C@@H]2SC[C@@H]3NC(=O)N[C@@H]32)[C@@H](O)[C@H]1O	–	–	pKi [1]: 7.52
O=C1N[C@H]2[C@H](CS[C@H]2CCCCCc2cn(Cc3ccc(C(=O)O)cc3)nn2)N1	–	–	pKi [4]: 6.55
NC(=O)CCCCNC(=O)c1ccc(C(c2cccc(F)c2)n2cc(CCCCC[C@@H]3SC[C@@H]4NC(=O)N[C@@H]43)nn2)cc1 (some centres not stated)	> 64	6.61	–
Cc1ccc2oc(=O)n(CCCCn3cc(CCCCC[C@@H]4SC[C@@H]5NC(=O)N[C@@H]54)nn3)c2c1	–	–	pKi [4]: 6.64
NCCCNC(=O)c1ccc(C(c2cccc(F)c2)n2cc(CCCCC[C@@H]3SC[C@@H]4NC(=O)N[C@@H]43)nn2)cc1 (some centres not stated)	8 (≈ 14.1 µM)	7.52	–
O=C1N[C@H]2[C@H](CS[C@H]2CCCCCc2cn(C(c3ccc(C(=O)NCCc4c[nH]cn4)cc3)c3cccc(F)c3)nn2)N1 (some centres not stated)	–	–	MIC (Staphylococcus aureus [5]): 1 mg/L (≈ 1.66 µM); pKi [6]: 8.22
Nc1cc(CNC(=O)c2ccc(C(c3cccc(F)c3)n3cc(CCCCC[C@@H]4SC[C@@H]5NC(=O)N[C@@H]54)nn3)cc2)ccn1 (some centres not stated)	–	–	MIC (Staphylococcus aureus [5]): 8 mg/L (≈ 13 µM); pKi [6]: 8.07
NC(=O)CCCNC(=O)c1ccc(C(c2cccc(F)c2)n2cc(CCCCC[C@@H]3SC[C@@H]4NC(=O)N[C@@H]43)nn2)cc1 (some centres not stated)	4 (≈ 6.74 µM)	8.00	–
Cc1ccc2oc(=O)n(CCCCn3nnc(CCCCC[C@@H]4SC[C@@H]5NC(=O)N[C@@H]54)c3F)c2c1	–	–	pKi [4]: 6.38
O=C1N[C@H]2[C@H](CS[C@H]2CCCCCc2cn(Cc3cccc(F)c3)nn2)N1	–	–	pKi [4]: 6.17
O=C1N[C@H]2[C@H](CS[C@H]2CCCCCc2cn(C(c3ccc(C(=O)NCCCc4c[nH]cn4)cc3)c3cccc(F)c3)nn2)N1 (some centres not stated)	32 (≈ 51.9 µM)	6.74	–
Nc1ncnc2c1ncn2[C@@H]1O[C@H](Cn2cc(CCCCC[C@@H]3SC[C@@H]4NC(=O)N[C@@H]43)nn2)[C@@H](O)[C@H]1O	–	–	pKi [1]: 5.93

Second part, led by results:

MIC (Staphylococcus aureus [2]) [mg/L]	SMILES	pKi [3]	other results
> 64	O=C1N[C@H]2[C@H](CS[C@H]2CCCCCc2cn(C(c3ccc(C(=O)NCc4ccncc4)cc3)c3cccc(F)c3)nn2)N1 (some centres not stated)	6.89	–
> 64	NCCCNC(=O)c1ccc(C(c2cccc(F)c2)n2nnc(CCCCC[C@@H]3SC[C@@H]4NC(=O)N[C@@H]43)c2F)cc1 (some centres not stated)	6.57	–
> 64	Nc1cc(CNC(=O)c2ccc(C(c3cccc(F)c3)n3nnc(CCCCC[C@@H]4SC[C@@H]5NC(=O)N[C@@H]54)c3F)cc2)ccn1 (some centres not stated)	6.88	–
> 64	O=C1N[C@H]2[C@H](CS[C@H]2CCCCCc2cn(C(c3ccc(C(=O)NCc4ccccn4)cc3)c3cccc(F)c3)nn2)N1 (some centres not stated)	6.26	–
> 64	O=C1N[C@H]2[C@H](CS[C@H]2CCCCCc2cn(C(c3ccc(C(=O)NCc4ccccc4)cc3)c3cccc(F)c3)nn2)N1 (some centres not stated)	6.06	–
> 64	O=C1N[C@H]2[C@H](CS[C@H]2CCCCCc2cn(C(c3ccc(C(=O)NCc4cccnc4)cc3)c3cccc(F)c3)nn2)N1 (some centres not stated)	6.63	–
> 64	Nc1ccc(CNC(=O)c2ccc(C(c3cccc(F)c3)n3cc(CCCCC[C@@H]4SC[C@@H]5NC(=O)N[C@@H]54)nn3)cc2)cc1 (some centres not stated)	7.20	–
